Tests used:
Lanosterol synthase = biological target: T1, Lanosterol synthase (Homo sapiens, UniProt P48449); assay: Inhibitory activity against Oxidosqualene-lanosterol cyclase from human liver microsomes
T1 sequence (P48449 whole entry): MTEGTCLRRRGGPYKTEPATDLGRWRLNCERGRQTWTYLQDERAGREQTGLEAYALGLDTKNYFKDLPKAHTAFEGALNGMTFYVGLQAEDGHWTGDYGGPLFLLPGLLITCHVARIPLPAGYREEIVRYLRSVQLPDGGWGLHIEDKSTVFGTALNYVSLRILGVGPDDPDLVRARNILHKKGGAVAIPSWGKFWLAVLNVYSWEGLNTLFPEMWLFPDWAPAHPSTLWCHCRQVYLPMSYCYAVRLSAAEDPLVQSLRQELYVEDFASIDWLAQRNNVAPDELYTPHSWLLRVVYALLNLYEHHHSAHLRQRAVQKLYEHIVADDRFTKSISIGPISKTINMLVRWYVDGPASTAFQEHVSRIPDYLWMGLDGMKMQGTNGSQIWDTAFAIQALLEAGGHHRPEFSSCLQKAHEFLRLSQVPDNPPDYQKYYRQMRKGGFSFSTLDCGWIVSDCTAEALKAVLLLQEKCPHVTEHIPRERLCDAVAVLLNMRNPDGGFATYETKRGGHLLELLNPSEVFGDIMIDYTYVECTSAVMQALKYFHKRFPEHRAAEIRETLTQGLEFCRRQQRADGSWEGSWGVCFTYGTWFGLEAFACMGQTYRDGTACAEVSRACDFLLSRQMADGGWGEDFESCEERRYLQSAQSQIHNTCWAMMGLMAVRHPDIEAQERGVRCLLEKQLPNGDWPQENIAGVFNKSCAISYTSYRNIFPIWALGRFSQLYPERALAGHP

Squalene--hopene cyclase = biological target: T2, Squalene--hopene cyclase (Alicyclobacillus acidocaldarius subsp. acidocaldarius (strain ATCC27009 / DSM 446 / 104-1A) (Bacillus acidocaldarius), UniProt P33247); assay: Inhibitory activity against squalene hopene cyclase from Alicyclobacillus acidocaldarius
T2 sequence (P33247 whole entry): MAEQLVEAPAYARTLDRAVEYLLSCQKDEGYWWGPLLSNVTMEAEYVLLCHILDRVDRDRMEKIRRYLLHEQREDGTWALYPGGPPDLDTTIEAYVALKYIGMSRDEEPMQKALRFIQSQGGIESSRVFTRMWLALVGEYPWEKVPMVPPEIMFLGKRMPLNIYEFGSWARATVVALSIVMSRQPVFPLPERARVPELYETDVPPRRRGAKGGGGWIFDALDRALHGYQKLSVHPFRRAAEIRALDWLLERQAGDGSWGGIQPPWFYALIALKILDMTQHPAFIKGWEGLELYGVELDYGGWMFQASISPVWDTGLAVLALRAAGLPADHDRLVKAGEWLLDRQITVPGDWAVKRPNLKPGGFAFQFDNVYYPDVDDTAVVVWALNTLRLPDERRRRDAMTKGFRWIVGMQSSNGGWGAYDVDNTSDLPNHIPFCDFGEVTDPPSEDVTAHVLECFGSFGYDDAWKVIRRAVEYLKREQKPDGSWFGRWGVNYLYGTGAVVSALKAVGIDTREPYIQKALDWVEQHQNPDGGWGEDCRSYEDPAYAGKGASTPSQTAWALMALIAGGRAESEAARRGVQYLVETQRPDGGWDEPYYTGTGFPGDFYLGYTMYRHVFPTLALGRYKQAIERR

Row | Structure (SMILES) | IC50 (Lanosterol synthase) [µM] | IC50 (Squalene--hopene cyclase) [µM]
1 | C=CCN(C)CCCCCCOc1ccc2c(-c3ccc(Br)cc3)coc2c1 | 0.61 | –
2 | C=CCN(C)CCCCCCOc1ccc2c(c1)CON=C2c1ccc(Br)cc1 | 0.0041 | 0.172
3 | C=CCN(C)CCCCCCOc1ccc2c(-c3ccc(Br)cc3)n[nH]c2c1 | 0.039 | –
4 | O=C(c1ccc(Cl)cc1)N1CCC(=Cc2ccc(C3=NCCO3)cc2)CC1 | 0.036 | 2.8
5 | C=CCN(C)Cc1ccc(-c2ccc(C(=O)c3ccc(Br)cc3)cc2)cc1 | 0.016 | –
6 | CN(C[C@H]1C[C@@H]1COc1ccc(C(=O)c2ccc(Br)cc2)c(F)c1)C1CC1 | 0.439 | 0.05
7 | C=CCN(C)C/C=C/COc1ccc(-c2nsc3cc(Br)ccc23)cc1 | 1.86 | 0.13
8 | C=CCN(C)C/C=C/COc1ccc2c(-c3ccc(Br)cc3)noc2c1 | 0.029 | 0.049
9 | C=CCN(C)CCCCCCOc1ccc2c(-c3ccc(Br)cc3)noc2c1 | 0.38 | 0.075
10 | C=CCN(C)CCCCCCOC1CCN(C(=O)c2ccc(F)cc2)CC1 | 0.071 | 1.2
11 | CN(CCCCCCOc1ccc(C(=O)c2ccc(Br)cc2)c(F)c1)C1CC1 | 0.098 | 0.038
12 | C=CCN(C)CCCCCCOc1ccc(C(=O)c2ccc(Br)cc2)cc1 | 0.0054 | 0.096
13 | C=CCN(C)C/C=C/COc1ccc2c(-c3ccc(Br)cc3)csc2c1 | 0.0135 | 0.075
14 | C=CCN(C)CCCCCCOc1ccc2c(-c3ccc(Br)cc3)nsc2c1 | 0.0029 | –
15 | CN(C(=O)Oc1ccc(Cl)cc1)[C@H]1CC[C@H](c2ccc(CN3CCCCC3)cc2)CC1 | 0.0113 | –
16 | C=CCN(C)CCCCCCOc1ccc(-c2nsc3cc(Br)ccc23)cc1 | 1.9 | –
17 | C=CCN(C)CCCCCCOc1ccc2c(-c3ccc(Br)cc3)nccc2c1 | 0.0035 | –
18 | C=CCN(C[C@H]1C[C@@H]1COc1ccc(C(=O)c2ccc(Br)cc2)cc1)C1CC1 | 0.223 | –
19 | C=CCN(C)CCCCCCOc1ccc2c(-c3ccc(Br)cc3)nn(C)c2c1 | 0.0196 | –
20 | CN(C[C@H]1C[C@@H]1COc1ccc(C(=O)c2ccc(Br)cc2)cc1)C1CC1 | 0.022 | 0.062
21 | CN(CCCCCCOC1CCN(C(=O)c2ccc(F)cc2)CC1)C1CC1 | 0.048 | 0.76
22 | CN(C(=O)Oc1ccc(Cl)cc1)[C@H]1CC[C@H](c2ccc(C[N+]3([O-])CCCCC3)cc2)CC1 | 0.64 | 0.123
23 | C=CCN(C)C/C=C/COc1ccc(C(=O)c2ccc(Br)cc2)cc1 | 0.003 | 0.04
24 | C=CCN(C)C/C=C/COc1ccc2c(-c3ccc(Br)cc3)coc2c1 | 0.5 | –
25 | C=CCN(C)CCCCCCOc1ccc2c(C)nn(C)c2c1 | 0.24 | 0.332
